Test system: agricultural and horticultural crops
Details: Nitrobenzene in a suitable formulation, used as spray or in granular form

O=[N+]([O-])c1ccccc1 [Nitrobenzene]
increasing flowers: 40 to 45%
